From US7429607B2, “5-HT2B receptor antagonists” (Asterand UK Limited, priority 2002, dated 2008) come the findings set out here.

For data set [1], the target named is T1, cloned human 5-HT2C receptor (Homo sapiens, UniProt P28335).
T1 construct: purchased Euroscreen; host or cells: CHO-K1 cells
T1 sequence (P28335 33-458): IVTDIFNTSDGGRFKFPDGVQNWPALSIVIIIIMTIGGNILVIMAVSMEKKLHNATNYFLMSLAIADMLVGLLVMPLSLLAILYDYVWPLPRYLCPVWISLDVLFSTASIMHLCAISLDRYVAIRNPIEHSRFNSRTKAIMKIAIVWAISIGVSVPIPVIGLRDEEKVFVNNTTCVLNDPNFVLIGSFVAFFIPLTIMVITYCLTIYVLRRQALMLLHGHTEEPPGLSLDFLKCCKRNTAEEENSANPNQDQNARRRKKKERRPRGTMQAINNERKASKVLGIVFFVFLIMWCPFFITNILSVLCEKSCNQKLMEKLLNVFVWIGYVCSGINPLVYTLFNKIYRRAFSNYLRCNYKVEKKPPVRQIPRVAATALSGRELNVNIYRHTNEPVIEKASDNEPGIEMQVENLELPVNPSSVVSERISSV
Description: Human 5-HT2C receptor binding assay ([3H]mesulergine, CHO-K1 membranes). As to conditions: displacement of [3H]mesulergine (1 nM), read-out: 5-HT2C pKi (converted). How it is done:
(§1) The binding affinity of ligands for human 5-HT2A and 5-HT2C receptors was determined using the following assay.
Membrane preparations from CHO-K1 cells expressing the cloned human 5-HT2C receptor were obtained (Euroscreen). The membranes were thawed rapidly and diluted in assay buffer containing Tris-HCl (50 mM, pH 7.7), ascorbic acid (0.1%) and pargyline (10 μM). The membranes were resuspended by homogenisation, prior to adding 6 μg of membranes to assay wells containing [^3H] mesulergine (1 nM), assay buffer (50 mM Tris at pH 7.7 and 0.1% ascorbic acid) containing pargyline (10 μM), and test compounds (1×10^−10 to 1×10^−4M). Non specific binding was determined in the presence of 100 μM mianserin. After 30 minutes incubation at 37° C., the assay mixture was filtered through a combination of GF-C and GF-B filters, pre-soaked in 1% bovine serum albumin, using a Brandel cell harvester, and were washed three times using ice cold Tris-HCl buffer (50 mM). Radioactivity retained on the filters was determined by liquid scintillation counting. For each test compound, the concentration that inhibited binding of [3H]mesulergine by 50% was determined using curve fitting software (Prism). Kd values (concentration of mesulergine required to occupy 50% of the receptor binding sites at equlibrium) determined from saturation binding studies were then used to calculate inhibition dissociation constants (Ki) using the following equation: […]

Data set [2] addresses T2, cloned human 5-HT2A receptor (Homo sapiens, UniProt P28223).
T2 construct: purchased Euroscreen; host or cells: CHO-K1 cells
Description: Human 5-HT2A receptor binding assay ([3H]ketanserin, CHO-K1 membranes). As to conditions: displacement of [3H]ketanserin (1 nM), read-out: 5-HT2A pKi (converted). How it is done: as §1
Membrane preparations from CHO-K1 cells expressing the cloned human 5-HT2A receptor were obtained (Euroscreen). The membranes were thawed rapidly and diluted in assay buffer containing Tris-HCl (50 mM, pH 7.7). The membranes were resuspended by homogenisation, prior to adding 15 μg of membranes to assay wells containing [3H] ketanserin (1 nM), assay buffer (50 mM Tris at pH 7.4) containing pargyline (10 μM), and test compounds (1×10^−10 to 1×10^−4M). Non specific binding was determined in the presence of 100 μM mianserin. After 15 minutes incubation at 37° C., the assay mixture was filtered through a combination of GF-C and GF-B filters, pre-soaked in 0.05% Brij, using a Brandel cell harvester, and were washed three times using ice cold Tris-HCl buffer (50 mM). Radioactivity retained on the filters was determined by liquid scintillation counting. For each test compound, the concentration that inhibited binding of [^3H]ketanserin by 50% was determined using curve fitting software (Prism). Kd values (concentration of ketanserin required to occupy 50% of the receptor binding sites at equlibrium) determined from saturation binding studies were then used to calculate inhibition dissociation constants (Ki) using the following equation: […]
For orientation: In a radioligand displacement assay an active substance lowers the binding of a labelled ligand.

The target in data set [3] is T3, 5-HT2B receptor in human tissues (Homo sapiens, UniProt P41595).
T3 construct: from tissue; host or cells: human colon longitudinal smooth muscle strips
The data set is described as follows: Human 5-HT2B receptor tissue based functional assay (human colon longitudinal smooth muscle). Type of data set: cell-based. As to conditions: antagonism of 5-HT effect on electrically stimulated human colon longitudinal muscle; pKB=log(CR-1)-log(antagonist concentration). How it is done: An in vitro functional assay, using human colon smooth muscle, was carried out to determine the affinity of the test compounds at the 5-HT2B receptor in human tissues. Sections of human colon were cut open along their longitudinal axis. The sections were pinned out flat and the mucosa carefully removed using sharp dissecting scissors. Once the mucosa was removed, the section was turned over to reveal the three taenia coli (taenia mesencolica, taenia omentalis and taenia libera) and the muscle bands that lie between them. Longitudinal muscle strips (2 mm wide by 20 mm long) were then cut from the tissue between the taenia coli and suspended between stainless steel hooks in organ chambers containing oxygenated (95% O2/5% CO2) Krebs solution at 37° C. The composition of the Krebs solution was as follows: NaCl (118.2 mM), KCl (4.69 mM), MgSO4.7H2O (1.18 mM), KH2PO4 (1.19 mM), glucose (11.1 mM), NaHCO3 (25.0 mM), CaCl2.6H2O (2.5 mM). Tissues were placed under a load equivalent to 10 mN and left to equilibrate for a period of at least 60 minutes. Responses were recorded using isometric transducers coupled to an Apple Macintosh computer via a MacLab interface. After 60 minutes, the longitudinal muscle sections of the human colon were stimulated electrically (sub-maximal voltage and frequency with 60s between successive stimulations) using parallel platinum wire electrodes and a Multistim D330 pulse stimulator. Upon electrical stimulation, the strips of human colon longitudinal smooth muscle responded with a rapid contraction. Once the response to electrical stimulation had stabilised (stimulated responses differed by no more than 10%), the strips were exposed to increasing concentrations of 5-HT (1×10^−9 to 1×10^−5M), in the absence or presence of test compounds (1×10^−7 to 1×10^−5M, incubated for 30 minutes). To determine the affinity of the compounds, the concentration of 5-HT required to produce half-maximal effects (EC50) was calculated in the absence and presence of test compound. The antagonist affinity was calculated by dividing the EC50 for 5-HT in the presence of antagonist by the EC50 for 5-HT in the absence of antagonist to yield a concentration ratio (CR). The results are shown in table 2 below as a pKB value, which is calculated as follows: pKB=log(CR−1)−log(antagonist concentration). This approach follows that set out in Kenakin, T. P. Pharmacologic analysis of drug-receptor interaction. Raven Press, New York, 2nd Edition.

T2 sequence (P28223 whole entry): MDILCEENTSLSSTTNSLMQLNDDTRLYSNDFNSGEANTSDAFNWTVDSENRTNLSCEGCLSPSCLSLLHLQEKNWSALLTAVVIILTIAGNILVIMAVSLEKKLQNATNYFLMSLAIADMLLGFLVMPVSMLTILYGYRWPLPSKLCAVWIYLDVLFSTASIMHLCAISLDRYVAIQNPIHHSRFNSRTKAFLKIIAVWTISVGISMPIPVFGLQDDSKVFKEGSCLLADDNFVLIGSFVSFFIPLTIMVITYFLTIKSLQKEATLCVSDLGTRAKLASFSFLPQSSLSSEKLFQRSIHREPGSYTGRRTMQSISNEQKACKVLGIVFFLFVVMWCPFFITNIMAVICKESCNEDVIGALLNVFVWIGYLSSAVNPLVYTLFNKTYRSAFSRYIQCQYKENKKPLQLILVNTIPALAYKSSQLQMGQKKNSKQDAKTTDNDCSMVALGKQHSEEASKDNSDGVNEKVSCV
T3 sequence (P41595 whole entry): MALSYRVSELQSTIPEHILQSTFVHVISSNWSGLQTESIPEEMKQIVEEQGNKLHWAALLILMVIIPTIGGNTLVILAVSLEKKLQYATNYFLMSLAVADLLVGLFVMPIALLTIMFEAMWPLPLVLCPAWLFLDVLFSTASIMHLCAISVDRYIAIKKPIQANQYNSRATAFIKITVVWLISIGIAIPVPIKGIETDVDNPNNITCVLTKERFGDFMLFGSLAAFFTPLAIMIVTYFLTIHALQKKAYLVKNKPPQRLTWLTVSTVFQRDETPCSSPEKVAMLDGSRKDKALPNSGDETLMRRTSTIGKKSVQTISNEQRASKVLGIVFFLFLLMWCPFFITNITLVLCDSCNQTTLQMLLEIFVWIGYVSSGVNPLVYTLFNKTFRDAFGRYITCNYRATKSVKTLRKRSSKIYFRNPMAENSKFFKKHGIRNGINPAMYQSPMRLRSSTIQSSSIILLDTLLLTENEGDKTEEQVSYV

In turn, `Nc1nc(-c2cccc3ccccc23)co1` [Compound 1, 2-amino-4-(naphth-1-yl)oxazole] returned a melting point of 155 to 162 °C. The Ki in data set [1] was greater than 1000 nM. Besides, the Ki in data set [2] is greater than 10000 nM. In addition, the Kb in data set [3] was less than 100 nM.
For `Cc1ccc2ccccc2c1-c1coc(N)n1` [Compound 6, 2-amino-4-(2′-methylnaphth-1-yl)oxazole], the Ki in data set [1] and in data set [2] was greater than 1000 nM in each case. In data set [3], this compound gave a Kb of less than 100 nM.
On to `CC(C)c1nc(N)oc1-c1cccc2ccccc12` [Compound 7, 2-amino-4-isopropyl-5-(naphth-1-yl)oxazole], for which the melting point was in the range of 127 to 129 °C. For the same compound, the Ki in data set [1] is greater than 1000 nM. Besides, the Ki in data set [2] is greater than 100 nM. In addition, in data set [3], the antagonist dissociation constant (Kb) was less than 10 nM.
Turning to `COc1ccc2ccccc2c1-c1coc(N)n1` [Compound 17, 4-(2-methoxy-naphthalen-1-yl)-oxazol-2-ylamine], the Ki in data set [1] was greater than 100 nM; in data set [2], greater than 1000 nM. This compound gave a Kb in data set [3] of less than 10 nM.
`CC(C)c1nc(N)oc1-c1ccc(F)c2ccccc12` [Compound 31, 2-amino-5-(4′-fluoronaphth-1-yl)-4-isopropyloxazole] registered a melting point of 141 °C. Also, in data set [1], the Ki is greater than 1000 nM. For the same compound, the Ki in data set [2] was greater than 1000 nM. For the same compound, the Kb in data set [3] was less than 100 nM.

Broadly, the melting point is the temperature, or range, at which the solid turns liquid. As usually defined, the Kb is the affinity of an antagonist, worked out from how it opposes an agonist.
